# Data reported in patent US20210198277A1, “AMINE-SUBSTITUTED ARYL OR HETEROARYL COMPOUNDS” (Epizyme, Inc., priority 2016, published 2021).
# Biological target: T1, EHMT2 (Homo sapiens, UniProt Q96KQ7)
# T1 construct: host or cells: MDA-MB-231
# T1 sequence (Q96KQ7 1-1210): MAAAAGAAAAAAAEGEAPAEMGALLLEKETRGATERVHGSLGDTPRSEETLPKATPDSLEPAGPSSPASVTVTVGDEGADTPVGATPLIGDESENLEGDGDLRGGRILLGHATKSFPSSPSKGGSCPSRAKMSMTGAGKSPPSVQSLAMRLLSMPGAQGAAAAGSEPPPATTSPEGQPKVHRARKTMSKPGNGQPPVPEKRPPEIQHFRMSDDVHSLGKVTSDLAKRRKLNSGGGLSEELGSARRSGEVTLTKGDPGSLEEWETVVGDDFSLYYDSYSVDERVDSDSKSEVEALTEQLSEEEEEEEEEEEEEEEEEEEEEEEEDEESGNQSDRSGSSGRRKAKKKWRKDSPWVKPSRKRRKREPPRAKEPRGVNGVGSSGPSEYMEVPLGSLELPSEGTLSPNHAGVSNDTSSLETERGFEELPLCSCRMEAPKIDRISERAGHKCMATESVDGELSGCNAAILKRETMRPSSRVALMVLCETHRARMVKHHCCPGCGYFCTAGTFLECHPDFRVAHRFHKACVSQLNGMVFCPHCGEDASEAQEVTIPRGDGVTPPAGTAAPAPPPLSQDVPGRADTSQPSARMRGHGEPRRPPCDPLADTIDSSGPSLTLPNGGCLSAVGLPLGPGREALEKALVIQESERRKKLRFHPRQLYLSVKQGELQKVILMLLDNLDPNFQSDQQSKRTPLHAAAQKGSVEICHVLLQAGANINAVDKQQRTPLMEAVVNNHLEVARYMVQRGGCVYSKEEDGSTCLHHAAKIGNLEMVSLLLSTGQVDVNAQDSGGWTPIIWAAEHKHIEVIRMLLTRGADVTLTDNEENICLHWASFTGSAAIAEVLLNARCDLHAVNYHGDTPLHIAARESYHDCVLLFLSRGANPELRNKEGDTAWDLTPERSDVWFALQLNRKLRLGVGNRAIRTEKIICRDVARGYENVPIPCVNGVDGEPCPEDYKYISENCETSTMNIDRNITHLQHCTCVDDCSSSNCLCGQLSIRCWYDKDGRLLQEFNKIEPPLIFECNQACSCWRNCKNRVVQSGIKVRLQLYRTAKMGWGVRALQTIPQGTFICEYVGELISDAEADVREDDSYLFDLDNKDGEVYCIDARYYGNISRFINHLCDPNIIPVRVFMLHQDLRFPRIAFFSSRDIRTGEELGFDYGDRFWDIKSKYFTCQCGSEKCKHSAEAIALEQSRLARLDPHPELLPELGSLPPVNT
# Experiment: MDA-MB-231 H3K9me2 in-cell Western assay (EHMT2 ICW)
# Assay type: cell-based
# Settings: H3K9me2 in-cell Western, MDA-MB-231 cells; read-out: EHMT2 ICW (IC50 μM)
# How it was run: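 MDA-MB-231 cells (3,000/well) were exposed to compound for 30 min at room temperature and then 48 h at 37 °C, fixed with paraformaldehyde, and stained with anti-H3K9me2 (800 nm) plus DRAQ5 (700 nm). Per-well channel ratios gave percent inhibition, and IC50 came from a four-parameter fit of triplicate wells.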
row,SMILES,IC50 [µM]
1,"CNc1ccnc(Nc2ccc(OC)c(OCCOC3CC3)c2)n1 [Compound 453, N^2-(3-(2-cyclopropoxyethoxy)-4-methoxyphenyl)-N^4-methylpyrimidine-2,4-diamine]",> 10
2,CNc1cc(C)nc(Nc2ccc(OC)c(OC3CCN(C)CC3)c2)n1 [Compound 455],> 10
3,"CNc1cc(C)nc(Nc2ccc(OC)c(OCC3CCN(C4CCCC4)C3)c2)n1 (stereo not shown) [Compound 456, N^2-(3-((1-cyclopentylpyrrolidin-3-yl)methoxy)-4-methoxyphenyl)-N^4,6-dimethylpyrimidine-2,4-diamine]",> 10
4,"CNc1cc(C2CCOCC2)nc(Nc2ccc(OC)c(OCCCN3CCCC3)c2)n1 [Compound 459, N^2-(4-methoxy-3-(3-(pyrrolidin-1-yl)propoxy)phenyl)-N^4-methyl-6-(tetrahydro-2H-pyran-4-yl)pyrimidine-2,4-diamine]",> 10
5,"COc1cnc(Nc2cc(NCC3CCOCC3)cc(C)n2)cc1OCCCN1CCCC1 [Compound 464, N^2-(5-methoxy-4-(3-(pyrrolidin-1-yl)propoxy)pyridin-2-yl)-6-methyl-N^4-((tetrahydro-2H-pyran-4-yl)methyl)pyridine-2,4-diamine]",1 to 10
6,"CNc1cc(C)nc(Nc2ccc(OC)c(OC3CCN(C4CC4)CC3)c2)n1 [Compound 466, N^2-(3-((1-cyclopropylpiperidin-4-yl)oxy)-4-methoxyphenyl)-N^4,6-dimethylpyrimidine-2,4-diamine]",> 10
7,CNc1cc(C)nc(Nc2ccc(OC)c(OC[C@H]3C[C@@H](N(C)C)C3)c2)n1 [Compound 468],1 to 10
8,CNc1cc(C)nc(Nc2ccc(OC)c(OC[C@H]3C[C@H](N(C)C)C3)c2)n1 [Compound 470],> 10
9,CCn1nc(Nc2nccc3[nH]ccc23)cc1COCCN1CCCC1 [Compound 471],> 10
10,CNc1cc(Nc2cc(OC[C@@H]3CCN(C)C3)c(OC)cn2)nc(C)n1 [Compound 473],1 to 10
11,CNc1ccnc(Nc2ccc(OC)c(OC[C@@H]3CN(C)C[C@@H]3C)c2)n1 [Compound 477],1 to 10
12,CNc1ccnc(Nc2ccc(OC)c(OCc3nnc(C4CC4)[nH]3)c2)n1 [Compound 478],> 10
13,CNc1ccnc(Nc2ccc(OC)c(OCc3ncn(C4CC4)n3)c2)n1 [Compound 480],> 10
14,COc1ccc(Nc2nc(C)cc3[nH]ccc23)cc1OCCCN1CCCC1 [Compound 486],> 10
15,CNc1cc(C)nc(Nc2ccc(OC)c([C@H]3C[C@@H]3CN(C)C)c2)n1 [Compound 487],1 to 10
16,CNc1cc(C)nc(Nc2ccc(OC)c(OC(C#N)CCN3CCCC3)c2)n1 (stereo not shown) [Compound 489],1 to 10
17,CNc1cc(C)nc(Nc2ccc(OC)c(OC[C@@H]3CN(C)C[C@H]3O)c2)n1 [Compound 491],1 to 10
18,CNc1cc(C)nc(Nc2cc(Cl)c(OC)c(OCCCN3CCCC3)c2)n1 [Compound 496],1 to 10
19,"CNc1cc(C)nc(Nc2ccc(OC)c(OCCCN3CCC4(CC4)C3)c2)n1 [Compound 498, N^2-(3-(3-(5-azaspiro[2.4]heptan-5-yl)propoxy)-4-methoxyphenyl)-N^4,6-dimethylpyrimidine-2,4-diamine]",1 to 10
20,CNc1cc(C)nc(Nc2ccc(OC)c(OCCCCN(C)C)c2)n1 [Compound 502],1 to 10
21,CNc1cc(C)nc(Nc2ccc(OC)c(OCCC3CCN(C)C3)c2)n1 (stereo not shown) [Compound 503],1 to 10
22,CNc1cc(C)nc(Nc2ccc(OC)c(OCCC3CN(C)C3)c2)n1 [Compound 508],> 10
23,CCc1ncc(Nc2nc(C)cc(NC)n2)cc1OCCCN1CCCC1 [Compound 515],1 to 10
24,CNc1cc(C)nc(Nc2cnc(C3CC3)c(OCCCN3CCCC3)c2)n1 [Compound 516],1 to 10

# Now from value to compound:
row,IC50 [µM],SMILES
1,< 0.1,"CNc1cc(C)nc(Nc2ccc(OC)c(OC[C@@H]3CCN(C4CC4)C3)c2)n1 (single isomer, unassigned) [Compound 481]"
2,1 to 10,"CNc1cc(C)nc(Nc2ccc(OC)c(OC[C@H]3CCN(C4CC4)C3)c2)n1 (single isomer, unassigned) [Compound 482]"
3,< 0.1,CNc1cc(C)nc(Nc2ccc(OC)c(OCC3CCN(C4CC4)C3)c2)n1 (stereo not shown) [Compound 457]
4,1 to 10,"CNc1cc(C2CCCC2)nc(Nc2ccc(OC)c(OCCCN3CCCC3)c2)n1 [Compound 458, 6-cyclopentyl-N^2-(4-methoxy-3-(3-(pyrrolidin-1-yl)propoxy)phenyl)-N^4-methylpyrimidine-2,4-diamine]"
5,0.1 to 1,"COc1cnc(Nc2nc(C)cc3[nH]ncc23)cc1OCCCN1CCCC1 [Compound 460, N-(5-methoxy-4-(3-(pyrrolidin-1-yl)propoxy)pyridine-2-yl)-6-methyl-1H-pyrazolo[4,3-c]pyridine-4-amine]"
6,0.1 to 1,"CNc1cc(C)nc(Nc2ccc(OC)c(OCC3CCN(CCO)C3)c2)n1 (stereo not shown) [Compound 461, 2-(3-((2-methoxy-5-((4-methyl-6-(methylamino)pyrimidin-2-yl)amino)phenoxy)methyl)pyrrolidin-1-yl)ethan-1-ol]"
7,0.1 to 1,"COc1ccc(Nc2nc(C)cc(NCC3CCOCC3)n2)cc1OCC1CCN(C2CC2)C1 (stereo not shown) [Compound 462, N^2-(3-((1-cyclopropylpyrrolidin-3-yl)methoxy)-4-methoxyphenyl)-6-methyl-N^4-((tetrahydro-2H-pyran-4-yl)methyl)pyrimidine-2,4-diamine]"
8,0.1 to 1,"CNc1cc(C)nc(Nc2ccc(OC)c(OCCCN(C)C3CC3)c2)n1 [Compound 463, N^2-(3-(3-(cyclopropyl(methyl)amino)propoxy)-4-methoxyphenyl)-N^4,6-dimethylpyrimidine-2,4-diamine]"
9,0.1 to 1,"CNc1cc(C)nc(Nc2ccc(OC)c(OCCCN3CC(O)C3)c2)n1 [Compound 465, 1-(3-(2-methoxy-5-((4-methyl-6-(methylamino)pyrimidin-2-yl)amino)phenoxy)propyl)azetidin-3-ol]"
10,0.1 to 1,CNc1cc(C)nc(Nc2cc(OC[C@@H]3CCN(C)C3)c(OC)cn2)c1 [Compound 475]
11,0.1 to 1,CNc1cc(C(C)C)nc(Nc2ccc(OC)c(OCCCN3CCCC3)c2)n1 [Compound 483]
12,0.1 to 1,COc1cnc(Nc2nc(C)cc3[nH]c(C)cc23)cc1OCCCN1CCCC1 [Compound 485]
13,0.1 to 1,CNc1cc(C)nc(Nc2ccc(OC)c([C@H]3C[C@H]3CN(C)C)c2)n1 [Compound 488]
14,< 0.1,CNc1cc(C)nc(Nc2ccc(OC)c(OCCCN3CCC3)c2)n1 [Compound 490]
15,0.1 to 1,CNc1cc(C)nc(Nc2ccc(OC)c(OC[C@@H]3CN(C)C[C@@H]3O)c2)n1 [Compound 492]
16,< 0.1,COc1cnc(Nc2nc(C)cc3[nH]ccc23)cc1OCC1CCN(C2CC2)C1 (stereo not shown) [Compound 494]
17,0.1 to 1,COc1cnc(Nc2nc(C)cc3[nH]ccc23)cc1OC[C@H]1CCN(C2CC2)C1 [Compound 494a]
18,0.1 to 1,COc1cnc(Nc2nc(C)cc3[nH]ccc23)cc1OC[C@@H]1CCN(C2CC2)C1 [Compound 495]
19,0.1 to 1,CCc1ccc(Nc2nc(C)cc(NC)n2)cc1OCCCN1CCCC1 [Compound 497]
20,0.1 to 1,"CNc1cc(C)nc(Nc2ccc(OC)c(OCCCN3CCCC3C)c2)n1 (stereo not shown) [Compound 504, N^2-(4-methoxy-3-(3-(2-methylpyrrolidin-1-yl)propoxy)phenyl)-N^4,6-dimethylpyrimidine-2,4-diamine]"
21,0.1 to 1,CNc1cc(C)nc(Nc2ccc(OC)c(OCCCN3CC4CC4C3)c2)n1 (stereo not shown) [Compound 506]
22,0.1 to 1,COc1cnc(Nc2nccc3[nH]ccc23)cc1OCCCN1CC2CC2C1 (stereo not shown) [Compound 507]
23,0.1 to 1,CNc1cc(Nc2cc(OCCCN3CC4CC4C3)c(OC)cn2)nc(C)c1F (stereo not shown) [Compound 509]
24,0.1 to 1,CNc1cc(C)nc(Nc2ccc(OC)c(OCC3CN(C4CC4)C3)c2)n1 [Compound 510]
25,< 0.1,CNc1cc(C)nc(Nc2cnc(OC)c(OC[C@@H]3CCN(C4CC4)C3)c2)n1 [Compound 512]
26,0.1 to 1,CNc1cc(C)nc(Nc2cnc(OC)c(OCCCN3CC4CC4C3)c2)n1 (stereo not shown) [Compound 514]
27,0.1 to 1,CNc1cc(C)nc(Nc2ccc(OC)c(OCC3CCCN(C4CC4)C3)c2)n1 (stereo not shown) [Compound 517a]
28,0.1 to 1,CNc1cc(C)nc(Nc2ccc(OC)c(OC[C@H]3CCCN(C4CC4)C3)c2)n1 [Compound 517b]
